Patent US8008061B2, “Trophic conversion of obligate phototrophic algae through metabolic engineering” (Martek Biosciences Corporation, priority 2000, dated 2011)

What was measured:
Type in all cases: cell-based
Cyclotella cryptica = experiment: Antibiotic sensitivity in diatoms, growth on solid media; conditions: C. cryptica; for lowest concentration of the antibiotic per ml required for cell death or the highest concentration tested: Table C, 100% I.O. media, 2 weeks of illumination
Experimental: (§1) The diatoms Phaeodactylum tricornutum, Cylindrotheca fusiformis, Cyclotella cryptica and Nitzschia alba were extensively tested for sensitivity to a series of antibiotics for which resistance genes are available, and the lowest concentrations which completely abrogate growth were determined for each antibiotic (Table C). […] These include antibiotics such as G418, Hygromycin, Kanamycin and Spectinomycin, which are routinely utilized for selection of other eukaryotic organisms.
(§2) The effective concentration range of the antibiotic in most cases was lowered by a factor of 10.
After 2 weeks of illumination the growth of the cells was assessed and the concentration of antibiotic required for cell death was determined. (Table D).

[1] = tested on: Phaeodactylum tricornutum; experiment: as above; conditions: P. tricornutum; for lowest concentration of the antibiotic per ml required for cell death or the highest concentration tested: Table C, 100% I.O. media, 2 weeks of illumination
Experimental: as §1, §2
(§3) Cells of each diatom species were plated on solid media at salinity equivalents of 25-100% I.O. media, with a gradient of antibiotic concentrations. After 2 weeks of illumination the growth of the cells was assessed and the concentration of antibiotic required for cell death was determined. (Table D).

Cylindrotheca fusiformis = experiment: as above; conditions: C. fusiformis; for lowest concentration of the antibiotic per ml required for cell death or the highest concentration tested: Table C, 100% I.O. media, 2 weeks of illumination; for lowest concentration of antibiotic per ml required for cell death or the lowest concentration tested: media with reduced salinity, 25% of normal seawater
Experimental: as §1, §2, §3

[2] = tested on: diatoms Phaeodactylum tricornutum, Cylindrotheca fusiformis, Cyclotella cryptica and Nitzschia alba; experiment: Antibiotic sensitivity, statements for the diatoms tested together; conditions: for effect on growth of the diatoms: compared to effectiveness in other eukaryotic organisms; for cell death: 100% I.O. media, the diatoms tested
Experimental: as §1, §2, §3

Nitzschia alba = experiment: Antibiotic sensitivity in diatoms, growth on solid media; design: unit not given here; conditions: N. alba; Table C; 100% I.O. media; 2 weeks of illumination
Experimental: as §1, §3

O=C(N[C@H](CO)[C@H](O)c1ccc([N+](=O)[O-])cc1)C(Cl)Cl [Chloramphenicol]
lowest concentration of the antibiotic per ml required for cell death or the highest concentration tested (Cyclotella cryptica): 50 mg per ml | lowest concentration of the antibiotic per ml required for cell death or the highest concentration tested [1]: 200 mg per ml | lowest concentration of the antibiotic per ml required for cell death or the highest concentration tested (Cylindrotheca fusiformis): 100 mg per ml

CC[C@H]1OC(=O)[C@H](C)[C@@H](O[C@H]2C[C@@](C)(OC)[C@@H](O)[C@H](C)O2)[C@H](C)[C@@H](O[C@@H]2O[C@H](C)C[C@H](N(C)C)[C@H]2O)[C@](C)(O)C[C@@H](C)C(=O)[C@H](C)[C@@H](O)[C@]1(C)O [Erythromycin]
lowest concentration of the antibiotic per ml required for cell death or the highest concentration tested (Cyclotella cryptica): 50 mg per ml | lowest concentration of the antibiotic per ml required for cell death or the highest concentration tested [1]: 100 mg per ml | lowest concentration of the antibiotic per ml required for cell death or the highest concentration tested (Cylindrotheca fusiformis): 100 mg per ml

CN[C@@H]1[C@@H](O)[C@@H](O[C@@H]2[C@@H](O)[C@H](O[C@H]3O[C@H]([C@@H](C)O)[C@@H](O)[C@H](O)[C@H]3N)[C@@H](N)C[C@H]2N)OC[C@]1(C)O [G418]
effect on growth of the diatoms [2]: no significant effect on growth or were effective only at very high concentrations | lowest concentration of the antibiotic per ml required for cell death or the highest concentration tested (Cylindrotheca fusiformis): >1 mg per ml

NC[C@H]1O[C@H](O[C@H]2[C@H](O)[C@@H](O[C@H]3O[C@H](CO)[C@@H](O)[C@H](N)[C@H]3O)[C@H](N)C[C@@H]2N)[C@H](O)[C@@H](O)[C@@H]1O [Kanamycin]
lowest concentration of the antibiotic per ml required for cell death or the highest concentration tested (Cyclotella cryptica): >1 mg per ml | lowest concentration of the antibiotic per ml required for cell death or the highest concentration tested [1]: >1 mg per ml | lowest concentration of the antibiotic per ml required for cell death or the highest concentration tested (Cylindrotheca fusiformis): >1 mg per ml

COc1ccc(C[C@H](N)C(=O)N[C@H]2[C@@H](O)[C@H](n3cnc4c(N(C)C)ncnc43)O[C@@H]2CO)cc1 [Puromycin]
lowest concentration of the antibiotic per ml required for cell death or the highest concentration tested (Cyclotella cryptica): 100 mg per ml | lowest concentration of the antibiotic per ml required for cell death or the highest concentration tested [1]: 200 mg per ml | lowest concentration of the antibiotic per ml required for cell death or the highest concentration tested (Cylindrotheca fusiformis): 100 mg per ml

CN[C@@H]1[C@H](O)[C@H](NC)[C@H]2O[C@@]3(O)C(=O)C[C@@H](C)O[C@H]3O[C@@H]2[C@H]1O [Spectinomycin]
lowest concentration of the antibiotic per ml required for cell death or the highest concentration tested (Cyclotella cryptica): >1 mg per ml | effect on growth of the diatoms [2]: no significant effect on growth or were effective only at very high concentrations | lowest concentration of the antibiotic per ml required for cell death or the highest concentration tested (Cylindrotheca fusiformis): >1 mg per ml

[H]/N=C(/N)N[C@H]1[C@H](O)[C@@H](O)[C@H](O[C@@H]2O[C@@H](C)[C@](O)(C=O)[C@H]2O[C@@H]2O[C@@H](CO)[C@H](O)[C@@H](O)[C@@H]2NC)[C@@H](N/C(N)=N\[H])[C@@H]1O [Streptomycin]
lowest concentration of the antibiotic per ml required for cell death or the highest concentration tested (Cyclotella cryptica): >1 mg per ml | lowest concentration of the antibiotic per ml required for cell death or the highest concentration tested [1]: >1 mg per ml | lowest concentration of the antibiotic per ml required for cell death or the highest concentration tested (Cylindrotheca fusiformis): >1 mg per ml

Cc1c(N)nc([C@H](CC(N)=O)NC[C@H](N)C(N)=O)nc1C(=O)N[C@H](C(=O)N[C@H](C)[C@@H](O)[C@H](C)C(=O)N[C@H](C(=O)NCCC1=N[C@@H](c2nc(C(=O)NCCCCN=C(N)N)cs2)CS1)[C@@H](C)O)[C@@H](O[C@@H]1O[C@@H](CO)[C@@H](O)[C@H](O)[C@@H]1O[C@H]1O[C@H](CO)[C@@H](O)[C@H](OC(N)=O)[C@@H]1O)c1cnc[nH]1 [Zeocin]
lowest concentration of the antibiotic per ml required for cell death or the highest concentration tested (Cyclotella cryptica): 250 mg per ml | lowest concentration of the antibiotic per ml required for cell death or the highest concentration tested (Nitzschia alba): >250 | cell death [2]: resulted in cell death

Bleomycin
lowest concentration of the antibiotic per ml required for cell death or the highest concentration tested (Cylindrotheca fusiformis): >50 mg per ml

Gentamicin
lowest concentration of the antibiotic per ml required for cell death or the highest concentration tested (Cyclotella cryptica): >1 mg per ml | lowest concentration of the antibiotic per ml required for cell death or the highest concentration tested [1]: >1 mg per ml | lowest concentration of the antibiotic per ml required for cell death or the highest concentration tested (Cylindrotheca fusiformis): >1 mg per ml

Neomycin
lowest concentration of the antibiotic per ml required for cell death or the highest concentration tested (Cyclotella cryptica): >1 mg per ml | lowest concentration of the antibiotic per ml required for cell death or the highest concentration tested (Nitzschia alba): >1 | lowest concentration of the antibiotic per ml required for cell death or the highest concentration tested (Cylindrotheca fusiformis): >1 mg per ml

Nourseothricin
lowest concentration of the antibiotic per ml required for cell death or the highest concentration tested (Cyclotella cryptica): >250 mg per ml | lowest concentration of the antibiotic per ml required for cell death or the highest concentration tested (Nitzschia alba): >250 | lowest concentration of the antibiotic per ml required for cell death or the highest concentration tested (Cylindrotheca fusiformis): >250 mg per ml | lowest concentration of antibiotic per ml required for cell death or the lowest concentration tested (Cylindrotheca fusiformis): <10 mg (25%) mg per ml

Phleomycin
lowest concentration of the antibiotic per ml required for cell death or the highest concentration tested (Cyclotella cryptica): 25 mg per ml | lowest concentration of antibiotic per ml required for cell death or the lowest concentration tested (Cyclotella cryptica; media with reduced salinity, 10% of normal seawater): <5 mg (10%) mg per ml | cell death [2]: resulted in cell death | lowest concentration of antibiotic per ml required for cell death or the lowest concentration tested ([1]; media with reduced salinity, 25% of normal seawater): <5 mg (25%) mg per ml | lowest concentration of antibiotic per ml required for cell death or the lowest concentration tested (Cylindrotheca fusiformis): <5 mg (25%) mg per ml
